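Interpolation was linear, between the two tested concentrations surrounding the appropriate level; five concentrations were tested over 48 hours in 96-well plates. GI50 = concentration required for 50% inhibition of growth.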 Active and inactive are the calls of the source. Rule as the data show it: active = GI50 up to about 1.1 µM and inactive = higher.
What was measured:
Experiment in all cases: NCI tumour cell line growth inhibition, 48 h
786-0 = system: 786-0
A549 = system: A549
ACHN = system: ACHN
CCRF-CEM = system: CCRF-CEM
COLO 205 = system: COLO 205
DLD-1 = system: DLD-1
DMS-114 = system: DMS-114
DMS-273 = system: DMS-273
HCC 2998 = system: HCC 2998
HCT-116 = system: HCT-116
HCT-15 = system: HCT-15
HL-60 = system: HL-60
HOP-62 = system: HOP-62
IGROV-1 = system: IGROV-1
K562 = system: K562
KM-20L2 = system: KM-20L2
KM12 = system: KM12
LOX IMVI = system: LOX IMVI
LXFL 529 = system: LXFL 529
M14 = system: M14
M19-MEL = system: M19-MEL
MOLT-4 = system: MOLT-4
Malme-3M = system: Malme-3M
NCI-H226 = system: NCI-H226
NCI-H23 = system: NCI-H23
NCI-H460 = system: NCI-H460
NCI-H522 = system: NCI-H522
OVCAR-3 = system: OVCAR-3
OVCAR-8 = system: OVCAR-8
RPMI-8226 = system: RPMI-8226
RXF 393 = system: RXF 393
SF-268 = system: SF-268
SF-295 = system: SF-295
SF-539 = system: SF-539
SK-MEL-28 = system: SK-MEL-28
SK-OV-3 = system: SK-OV-3
SN12C = system: SN12C
SNB-19 = system: SNB-19
SNB-75 = system: SNB-75
SNB-78 = system: SNB-78
SR = system: SR
SW-620 = system: SW-620
TK-10 = system: TK-10
U-251 = system: U-251
UACC-257 = system: UACC-257
UACC-62 = system: UACC-62
UO-31 = system: UO-31
A498 = system: A498
EKVX = system: EKVX
HOP-92 = system: HOP-92
HT-29 = system: HT-29
OVCAR-4 = system: OVCAR-4
OVCAR-5 = system: OVCAR-5
SK-MEL-2 = system: SK-MEL-2
SK-MEL-5 = system: SK-MEL-5

Structure (SMILES): Cc1ccc(S(=O)(=O)NCCCN(CCCNS(=O)(=O)c2ccc(C)cc2)S(=O)(=O)c2ccc(C)cc2)cc1
- GI50 (786-0): > 100 µM (inactive)
- GI50 (A549): > 100 µM (inactive)
- GI50 (ACHN): > 100 µM (inactive)
- GI50 (CCRF-CEM): > 100 µM (inactive)
- GI50 (COLO 205): > 100 µM (inactive)
- GI50 (DLD-1): > 100 µM (inactive)
- GI50 (DMS-114): > 100 µM (inactive)
- GI50 (DMS-273): > 100 µM (inactive)
- GI50 (HCC 2998): > 100 µM (inactive)
- GI50 (HCT-116): > 100 µM (inactive)
- GI50 (HCT-15): > 100 µM
- GI50 (HL-60): > 100 µM (inactive)
- GI50 (HOP-62): > 100 µM (inactive)
- GI50 (IGROV-1): > 100 µM (inactive)
- GI50 (K562): > 100 µM (inactive)
- GI50 (KM-20L2): > 100 µM (inactive)
- GI50 (KM12): 89.1 µM (inactive)
- GI50 (LOX IMVI): > 100 µM (inactive)
- GI50 (LXFL 529): > 100 µM (inactive)
- GI50 (M14): > 100 µM (inactive)
- GI50 (M19-MEL): > 100 µM (inactive)
- GI50 (MOLT-4): > 100 µM (inactive)
- GI50 (Malme-3M): > 100 µM (inactive)
- GI50 (NCI-H226): > 100 µM (inactive)
- GI50 (NCI-H23): > 100 µM (inactive)
- GI50 (NCI-H460): > 100 µM (inactive)
- GI50 (NCI-H522): > 100 µM (inactive)
- GI50 (OVCAR-3): > 100 µM (inactive)
- GI50 (OVCAR-8): > 100 µM (inactive)
- GI50 (RPMI-8226): > 100 µM (inactive)
- GI50 (RXF 393): > 100 µM (inactive)
- GI50 (SF-268): > 100 µM (inactive)
- GI50 (SF-295): > 100 µM (inactive)
- GI50 (SF-539): > 100 µM (inactive)
- GI50 (SK-MEL-28): > 100 µM (inactive)
- GI50 (SK-OV-3): > 100 µM (inactive)
- GI50 (SN12C): > 100 µM (inactive)
- GI50 (SNB-19): > 100 µM (inactive)
- GI50 (SNB-75): > 100 µM (inactive)
- GI50 (SNB-78): > 100 µM (inactive)
- GI50 (SR): 69.7 µM (inactive)
- GI50 (SW-620): > 100 µM (inactive)
- GI50 (TK-10): > 100 µM (inactive)
- GI50 (U-251): > 100 µM (inactive)
- GI50 (UACC-257): > 100 µM (inactive)
- GI50 (UACC-62): > 100 µM (inactive)
- GI50 (UO-31): > 100 µM (inactive)

Structure (SMILES): COc1ccc(C(N)=O)c(OC)c1OCc1ccccc1
- GI50 (786-0): > 100 µM (inactive)
- GI50 (A498): > 100 µM (inactive)
- GI50 (A549): > 100 µM (inactive)
- GI50 (ACHN): > 100 µM (inactive)
- GI50 (CCRF-CEM): > 100 µM (inactive)
- GI50 (COLO 205): > 100 µM (inactive)
- GI50 (DLD-1): > 100 µM (inactive)
- GI50 (DMS-114): > 100 µM (inactive)
- GI50 (DMS-273): > 100 µM (inactive)
- GI50 (EKVX): > 100 µM (inactive)
- GI50 (HCC 2998): > 100 µM (inactive)
- GI50 (HCT-116): > 100 µM (inactive)
- GI50 (HCT-15): > 100 µM
- GI50 (HL-60): > 100 µM (inactive)
- GI50 (HOP-62): > 100 µM (inactive)
- GI50 (HOP-92): > 100 µM (inactive)
- GI50 (HT-29): > 100 µM (inactive)
- GI50 (IGROV-1): > 100 µM (inactive)
- GI50 (K562): > 100 µM (inactive)
- GI50 (KM-20L2): > 100 µM (inactive)
- GI50 (KM12): > 100 µM (inactive)
- GI50 (LOX IMVI): > 100 µM (inactive)
- GI50 (LXFL 529): > 100 µM (inactive)
- GI50 (M14): > 100 µM (inactive)
- GI50 (M19-MEL): > 100 µM (inactive)
- GI50 (MOLT-4): > 100 µM (inactive)
- GI50 (NCI-H226): > 100 µM (inactive)
- GI50 (NCI-H23): 9.51 µM (inactive)
- GI50 (NCI-H460): > 100 µM (inactive)
- GI50 (NCI-H522): 12.4 µM (inactive)
- GI50 (OVCAR-3): > 100 µM (inactive)
- GI50 (OVCAR-4): > 100 µM (inactive)
- GI50 (OVCAR-5): > 100 µM (inactive)
- GI50 (OVCAR-8): > 100 µM (inactive)
- GI50 (RPMI-8226): > 100 µM (inactive)
- GI50 (RXF 393): 0.15 µM (active)
- GI50 (SF-268): > 100 µM (inactive)
- GI50 (SF-295): > 100 µM (inactive)
- GI50 (SF-539): > 100 µM (inactive)
- GI50 (SK-MEL-28): > 100 µM (inactive)
- GI50 (SK-MEL-2): > 100 µM (inactive)
- GI50 (SK-MEL-5): > 100 µM (inactive)
- GI50 (SK-OV-3): > 100 µM (inactive)
- GI50 (SN12C): > 100 µM (inactive)
- GI50 (SNB-19): > 100 µM (inactive)
- GI50 (SNB-75): > 100 µM (inactive)
- GI50 (SNB-78): > 100 µM (inactive)
- GI50 (SW-620): > 100 µM (inactive)
- GI50 (TK-10): > 100 µM (inactive)
- GI50 (U-251): > 100 µM (inactive)
- GI50 (UACC-62): > 100 µM (inactive)
- GI50 (UO-31): > 100 µM (inactive)
